Experimental data from patent publication US7383788B2, “Enhanced feeding and growth rates of aquatic animals fed an astaxanthin product derived from marigold extract” (DSM IP Assets B.V., priority 2002, dated 2008).

How the values were obtained:
Rainbow trout = assay: Field trial on rainbow trout in a commercial fish farm (pigmentation and growth); format: in vivo; details: 90 ppm in feed
Protocol: A field trial with Rainbow Trout was done to assess pigmentation and growth in a commercial fish farm. The fish were grown in concrete raceways where fish were stocked in two sections of different raceways. In one section we had the control treatment which was fed with feed containing synthetic astaxanthin at 90 ppm. […] The water temperature was constant at 16° C. throughout the test as was the flow rate at 60 1/sec. Fish were fed to satiate, feed consumed was weighed for each treatment and conversion rates calculated based on the initial and final biomass.

[1] = system: Penaeid shrimp (Litopenaeus vannamei); assay: Field trial on a commercial shrimp farm using several pigment sources to evaluate production; format: in vivo
Description: Penaeid shrimp (Litopenaeus vannamei) with an average initial weight of 0.96 gr were stocked at a density of 25.04 individuals/square meter in […]. There were three ponds for each treatment to give a total of 12 ponds. The size of the ponds differed slightly as shown in Table 3 where a summary of the yields obtained after harvesting are also presented. All ponds were fed with the same diets varying only in the type of pigment used and keeping one as a control without pigment addition. Weight of feed supplied to each pond was recorded daily and the feed conversion ratio calculated after harvesting. Culture of the shrimp was done following normal commercial procedures and doing exactly the same operations in all ponds.

CC1=C(/C=C/C(C)=C/C=C/C(C)=C/C=C/C=C(C)/C=C/C=C(C)/C=C/C2=C(C)C(=O)[C@@H](O)CC2(C)C)C(C)(C)C[C@H](O)C1=O [Synthetic astaxanthin, astaxanthin]
Average Wt gain (Rainbow trout): 0.188 kg | Average end Wt (Rainbow trout): 0.337 kg | Conv. Ratio (Rainbow trout; based on initial and final biomass): 1.56 | average weight gain (Rainbow trout; end of feeding trial): 188 grams | Feed consumed (Rainbow trout; fed to satiate): 125.2 kg | Final Biomass (Rainbow trout; fed to satiate, 16° C.): 154.6 kg | Harvest Kg/Hect ([1]; 25 ppm pigment in feed): 1,283 Kg/Hect | % Survival ([1]; 25 ppm pigment in feed, at harvest after 92-100 days): 66.5% | Feed Conv Ratio ([1]; 25 ppm pigment in feed, calculated after harvesting): 1.62 | Harvest Kg ([1]; 25 ppm pigment in feed, three ponds): 18,729 Kg | survival rate (in words) ([1]; after harvesting): low survival rate
